Converted amounts (≈) assume the structure as drawn. Read-outs that look alike come from different tables or passages of the source.
What was measured:
Fungal cells = test: Disk diffusion assay for antimicrobial activity (Example 2), zone of growth inhibition; format: cell-based; conditions: for zone of growth inhibition, diameter / zone of inhibition at 100 µg/disc: 37° C., 24 hours; for zone of inhibition at 100 µg/disc: 100 μg per 6 mm disk, read-out: zone of growth inhibition, diameter
Description: (§1) Fungal cells were grown overnight from a single colony in 2-5 ml Sabouraud Dextrose Broth at 37° C. 1-5×10^6 were spread onto Sabouraud Dextrose Agar plates (Difco, Detroit, Mich.). Sterile 6 mm filter disks were evenly spaced with at least about 22 mm separation on the plates. To each disk, 100 μg of a compound to be tested was applied in 5-10 μl DMSO. On each plate, two disks containing 2.5 and 10 μg, respectively, of Amphotericin B (Sigma) and two disks containing 2.5 and 10 μg, respectively, of cerulenin (Sigma) were used as positive controls. A disk containing only DMSO served as the negative control. The plates were incubated at 37° C. for 24 hours and the zone of growth inhibition about each disk was visually examined and measured. Compound A and compound B typically produced clear zones of 8-12 mm diameter. Amphotericin B typically produced a clear zone of 8-10 mm diameter. Cerulenin typically produced a hazy zone of 20-25 mm diameter. A clear zone is indicative of fungicidal activity, while a hazy zone is indicative of fungistatic activity.

[1] = test system: C. albicans strain ATCC 10231; test: Murine systemic model of candidiasis; format: in vivo, mice; conditions: for % Survival: after nine days
Description: (§2) In vivo activity was determined using a murine systemic model of candidiasis. Groups of 5 to 10 mice were inoculated IV with 1-2×10^7 cells of C. albicans strain ATCC 10231 (10 times the lethal dose). One hour after inoculation, the candidate antifungal compounds were delivered IP. 10 mg/kg of compound A was injected into each mouse of the compound A treatment group. Two separate treatment groups received 30 and 100 mg/kg, respectively, of compound B. Amphotericin B was injected into a positive control treatment group at 10 mg/kg. All compounds were delivered in phosphate-buffered saline (PBS) and one treatment group received PBS. Twice daily thereafter the mice were observed, the number of dead mice recorded, and the dead mice removed. After nine days, the total mortality over the period was determined.

[2] = molecular target: T1, FAS of C. Albicans strain 4918 (Candida albicans, UniProt P34731+P43098); test: FAS activity in extracts of treated C. Albicans cultures (Example 10); format: cell-based; conditions: for remaining activity at 10 µg/mL / remaining activity at 25 µg/mL: read-out: Percent Remaining FAS Activity
T1 construct: endogenous in cells; host or cells: Candida albicans strain 4918 (from Dr. Ronald Cihlar, Georgetown University Medical Center)
Description: C. Albicans strain 4918 (available from Dr. Ronald Cihlar, Georgetown University Medical Center, Washington, D.C.) was grown in minimal medium (M63 media available from Difco, Detroit, Mich.) at 37° C. to mid-log phase. 10 μg/ml cerulenin and 25 μg/ml of compound B were added to separate cultures. At 15 minute intervals, 20 ml samples were removed and extracts prepared by mechanical extraction as in Example 1C, except that the ammonium sulfate precipitation step was not applied. The extract was diluted to 1 ml to form a solution containing 0.4M potassium phosphate, pH 7.3, 0.125 μM dithiothreitol, 50 μM acetyl-CoA, 100 μM NADPH. After incubation at 37° C. for 5 minutes, 100 μM malonyl-CoA containing 0.5 μCi [2-^14 C]-malonyl-CoA (Amersham, Arlington Heights, Ill.). After 10 minutes at 37° C., the fatty acid synthesis reaction was terminated by adding 30 μl of 60% perchloric acid (v/v) and 1 ml ethanol. Four volumes of pet. ether were added to each reaction incubation to extract the fatty acids. The relative incorporation of malonyl-CoA into fatty acids was determined by liquid scintillation counting.

[3] = test system: Candida tropicalis (strain ATCC 13803); test: Disk diffusion assay for antimicrobial activity (Example 2); format: cell-based
Description: as §1

[4] = test system: Candida albicans (strains ATCC 10231 and ATCC 10261); test: as above; format: cell-based
Description: as §1

FAS from S. cereviseae = molecular target: T2, FAS from S. cereviseae (Saccharomyces cerevisiae, UniProt P07149+P19097); test: FAS inhibition assay (Example 1C); format: biochemical
T2 construct: an FAS extract from Saccharomyces cerviseae was prepared; (the yeast itself); host or cells: Fleishmans' freeze dried yeast (Saccharomyces cerevisiae); dialyzed ammonium sulfate precipitate of the lysate
T2 sequence (P19097 whole entry): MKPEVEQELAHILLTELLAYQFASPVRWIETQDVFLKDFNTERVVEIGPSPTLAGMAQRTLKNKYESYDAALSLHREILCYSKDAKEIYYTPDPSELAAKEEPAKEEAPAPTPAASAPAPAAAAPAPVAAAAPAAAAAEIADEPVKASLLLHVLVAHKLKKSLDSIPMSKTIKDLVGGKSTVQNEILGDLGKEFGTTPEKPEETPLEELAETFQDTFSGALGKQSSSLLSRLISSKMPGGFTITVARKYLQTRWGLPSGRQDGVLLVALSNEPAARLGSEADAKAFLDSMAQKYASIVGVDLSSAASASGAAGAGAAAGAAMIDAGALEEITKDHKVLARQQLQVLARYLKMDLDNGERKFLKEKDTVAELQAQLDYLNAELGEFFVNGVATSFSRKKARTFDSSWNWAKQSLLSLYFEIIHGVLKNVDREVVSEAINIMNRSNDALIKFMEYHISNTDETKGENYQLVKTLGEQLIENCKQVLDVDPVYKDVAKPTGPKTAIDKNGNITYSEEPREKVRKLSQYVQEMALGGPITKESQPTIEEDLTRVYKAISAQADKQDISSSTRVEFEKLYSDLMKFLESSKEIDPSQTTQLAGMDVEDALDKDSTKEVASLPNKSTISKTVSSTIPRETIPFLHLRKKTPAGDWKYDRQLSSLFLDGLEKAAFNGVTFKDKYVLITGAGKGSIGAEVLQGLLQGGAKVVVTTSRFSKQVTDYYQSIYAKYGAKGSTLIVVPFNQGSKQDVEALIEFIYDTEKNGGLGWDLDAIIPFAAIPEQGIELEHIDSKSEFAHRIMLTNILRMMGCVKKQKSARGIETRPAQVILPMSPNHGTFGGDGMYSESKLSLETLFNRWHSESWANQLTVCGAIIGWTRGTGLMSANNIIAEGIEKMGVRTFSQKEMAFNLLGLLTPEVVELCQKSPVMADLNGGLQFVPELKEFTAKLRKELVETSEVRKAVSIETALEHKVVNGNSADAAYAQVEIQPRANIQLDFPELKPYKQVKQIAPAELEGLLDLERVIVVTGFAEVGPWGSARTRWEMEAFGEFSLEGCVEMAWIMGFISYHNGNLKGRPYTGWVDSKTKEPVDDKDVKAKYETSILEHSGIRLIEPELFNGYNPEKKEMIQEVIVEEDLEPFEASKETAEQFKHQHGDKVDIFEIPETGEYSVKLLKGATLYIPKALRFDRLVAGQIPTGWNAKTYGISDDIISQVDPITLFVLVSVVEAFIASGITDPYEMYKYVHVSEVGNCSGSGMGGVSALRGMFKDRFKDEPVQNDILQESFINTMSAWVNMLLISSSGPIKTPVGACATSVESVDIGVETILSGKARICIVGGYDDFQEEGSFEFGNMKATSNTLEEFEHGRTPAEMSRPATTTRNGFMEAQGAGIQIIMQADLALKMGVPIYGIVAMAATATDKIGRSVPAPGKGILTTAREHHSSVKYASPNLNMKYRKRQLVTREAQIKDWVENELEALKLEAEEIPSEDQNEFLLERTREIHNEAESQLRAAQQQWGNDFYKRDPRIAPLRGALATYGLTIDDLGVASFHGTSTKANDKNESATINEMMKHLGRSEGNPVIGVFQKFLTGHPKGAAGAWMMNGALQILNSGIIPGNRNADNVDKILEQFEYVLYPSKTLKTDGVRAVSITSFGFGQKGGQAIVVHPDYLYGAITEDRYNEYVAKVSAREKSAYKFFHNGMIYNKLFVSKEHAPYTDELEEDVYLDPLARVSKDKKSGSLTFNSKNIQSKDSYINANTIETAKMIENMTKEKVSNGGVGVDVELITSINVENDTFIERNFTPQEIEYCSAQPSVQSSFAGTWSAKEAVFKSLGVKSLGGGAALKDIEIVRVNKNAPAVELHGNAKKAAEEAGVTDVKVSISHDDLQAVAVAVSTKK
T2 sequence (P07149 whole entry): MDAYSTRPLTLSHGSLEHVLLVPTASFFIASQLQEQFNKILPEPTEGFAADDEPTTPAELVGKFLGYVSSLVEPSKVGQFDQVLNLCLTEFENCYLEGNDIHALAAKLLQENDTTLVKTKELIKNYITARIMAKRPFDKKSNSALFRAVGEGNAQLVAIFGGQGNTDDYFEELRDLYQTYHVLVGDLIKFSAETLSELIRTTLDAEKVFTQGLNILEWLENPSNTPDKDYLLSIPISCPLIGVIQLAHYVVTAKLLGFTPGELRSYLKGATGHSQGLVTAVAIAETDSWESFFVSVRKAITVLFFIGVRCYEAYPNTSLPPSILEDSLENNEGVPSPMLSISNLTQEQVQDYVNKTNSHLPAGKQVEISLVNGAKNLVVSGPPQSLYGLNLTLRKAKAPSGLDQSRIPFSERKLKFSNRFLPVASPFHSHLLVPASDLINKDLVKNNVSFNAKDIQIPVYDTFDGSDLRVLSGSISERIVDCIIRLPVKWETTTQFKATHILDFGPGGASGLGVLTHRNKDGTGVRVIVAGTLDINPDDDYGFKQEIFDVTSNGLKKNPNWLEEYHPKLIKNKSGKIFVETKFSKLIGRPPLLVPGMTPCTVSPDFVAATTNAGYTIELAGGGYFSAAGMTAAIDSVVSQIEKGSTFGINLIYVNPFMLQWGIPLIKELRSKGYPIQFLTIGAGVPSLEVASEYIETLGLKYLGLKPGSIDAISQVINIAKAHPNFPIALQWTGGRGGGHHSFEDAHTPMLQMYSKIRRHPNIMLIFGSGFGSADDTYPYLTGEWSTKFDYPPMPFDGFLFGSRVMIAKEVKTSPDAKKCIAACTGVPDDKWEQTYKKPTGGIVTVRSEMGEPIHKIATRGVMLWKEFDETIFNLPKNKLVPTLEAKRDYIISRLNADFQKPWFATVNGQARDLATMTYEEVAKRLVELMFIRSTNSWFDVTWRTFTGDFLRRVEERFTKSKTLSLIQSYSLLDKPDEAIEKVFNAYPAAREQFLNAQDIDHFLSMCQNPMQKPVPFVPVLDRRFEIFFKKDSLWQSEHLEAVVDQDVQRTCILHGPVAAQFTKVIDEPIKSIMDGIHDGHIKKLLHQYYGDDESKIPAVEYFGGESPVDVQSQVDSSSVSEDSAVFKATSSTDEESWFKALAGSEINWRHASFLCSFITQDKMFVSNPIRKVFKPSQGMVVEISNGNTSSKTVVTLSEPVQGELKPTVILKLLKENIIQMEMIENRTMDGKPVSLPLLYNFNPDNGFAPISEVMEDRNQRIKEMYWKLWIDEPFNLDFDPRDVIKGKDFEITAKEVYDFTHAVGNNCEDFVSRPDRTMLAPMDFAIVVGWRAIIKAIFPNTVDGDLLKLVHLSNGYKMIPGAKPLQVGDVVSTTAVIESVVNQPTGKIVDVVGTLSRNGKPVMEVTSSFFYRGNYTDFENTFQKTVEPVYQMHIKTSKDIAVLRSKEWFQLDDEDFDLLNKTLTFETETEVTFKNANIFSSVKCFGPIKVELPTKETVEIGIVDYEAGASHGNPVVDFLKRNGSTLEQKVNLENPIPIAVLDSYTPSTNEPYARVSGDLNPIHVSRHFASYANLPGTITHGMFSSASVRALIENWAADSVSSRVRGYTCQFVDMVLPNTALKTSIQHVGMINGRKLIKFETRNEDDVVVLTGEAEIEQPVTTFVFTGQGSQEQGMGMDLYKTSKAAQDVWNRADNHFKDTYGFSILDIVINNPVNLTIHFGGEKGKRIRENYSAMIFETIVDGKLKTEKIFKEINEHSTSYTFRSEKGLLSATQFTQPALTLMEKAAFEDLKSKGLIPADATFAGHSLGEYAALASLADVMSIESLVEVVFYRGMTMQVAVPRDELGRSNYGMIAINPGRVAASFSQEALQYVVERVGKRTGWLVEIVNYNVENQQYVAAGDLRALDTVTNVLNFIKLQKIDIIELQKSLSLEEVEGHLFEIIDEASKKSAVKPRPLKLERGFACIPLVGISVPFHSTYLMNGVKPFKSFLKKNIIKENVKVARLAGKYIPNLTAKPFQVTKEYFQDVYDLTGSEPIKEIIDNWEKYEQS
Description: To test the compounds for FAS inhibitory activity, an FAS extract from Saccharomyces cerviseae was prepared. Freeze dried yeast (Fleishmans' freeze dried yeast, Specialty Brands, San Francisco, Calif.) 1 g, was hydrated in 5 mls deionized water for 15 minutes at 4° C. Subsequent extraction steps were conducted at a temperature between 4° C. and 10° C., except that in the cell lysis step the temperature may have briefly exceeded these boundaries. The cells were pelleted by centrifugation; the pelleted volume was measured; and the cells were resuspended in 5 vol. (5 mls per ml cell volume) extraction buffer [125 mM KH2PO4, pH 6.6, 1 mM EDTA, 1 mM DTT, 0.7 μg/ml pepstatin (Boehringer Mannheim, Indianapolis, Ind.), 0.2 μg/ml aprotinin (Boehringer Mannheim, Indianapolis, Ind.), 0.2 μg/ml leupeptin (Boehringer Mannheim, Indianapolis, Ind.)]. The cells were again pelleted and resuspended in 2 vol. extraction buffer. The cells were lysed using a bead mill homogenizer (Biospec Products, Bartlesville, OD) with a volume of glass beads equal to the volume of the yeast cells. The bead mill was operated five times for 1 minute, with 1 minute intervals between operations to allow the water jacket of the bead mill to cool the material in the mill. The lysate was centrifuged at 30,000×g for 30 minutes and the supernate was collected. Ammonium sulfate was added to the supernate to 50% saturation and the mixture was stirred for 30 minutes on ice. […]
105 μl of FAS extract was placed in each well of a polypropylene 96 well plate (Costar Corp. Cambridge, Mass.) and multiple 5 μl dilutions of compound A, compound B or negative control solution were introduced into each of the wells. […] The relative initial reaction rates in each well were measured by measuring the decrease in optical density at 340 nm using a UV Max microtiter plate reader (Molecular Devices, Sunnyvalle, Calif.).

[5] = test system: Candida Albicans strain B311A; test: MIC assay (Example 1B); format: cell-based; conditions: for MIC: Candida albicans; for activity in the MIC assay of Example 1B (in words): HPLC-purified material, strain not stated
Description: The fractions from the purification were tested for antifungal activity against C. albicans (strain B311A available from Dr. Paul Actor, Temple University and strains ATCC Nos. 10231 and 10261) and C. tropicalis (strain 13803). […] Prior to the assay for antifungal activity, the fungus to be tested for susceptibility was grown overnight from a single colony in 5 ml of medium at 30° C. This overnight culture was diluted 1:10 with fresh medium and grown at 37° C. for 4 hours. A volume of 5 μl of extracts, dissolved in DMSO, was added to each separate well in a series of 96-well plates. 4,000 fungal cells were then added to each plate in 95 μl of medium. The optical densities of the wells were measured and the plates incubated at 37° C. The optical densities were again measured after 24 and 48 hours. Minimum inhibitory concentrations ("MICs") for the extracts were determined using this procedure wherein the extracts were serially diluted in medium prior to mixing with the 4,000 fungal cells.

[6] = Maximal tolerated dose in mice, IP administration; conditions: mouse, in vivo, read-out: maximal tolerated dose (maximum dose that caused no deaths within 72 hours)
Description: as §2
Using the same methodology, it was determined that the maximal tolerated dose in these mice (i.e., the maximum dose that caused no deaths within 72 hours following IP administration) of compound B was in excess of 200 mg/kg. The mice treated with 2108B or Amphotericin B injected IP in […] of phosphate buffered saline, pH 7.4 had the following treatment profiles: […]

[7] = positive control disks with 2.5 and 10 μg
[8] = 10 mg/kg IP one hour after inoculation
[9] = Sabouraud Dextrose Broth substituted for YNB medium

C[C@@H]1[C@H](O)[C@@H](C)/C=C/C=C/C=C/C=C/C=C/C=C/C=C/[C@H](O[C@@H]2O[C@H](C)[C@@H](O)[C@H](N)[C@@H]2O)C[C@@H]2O[C@](O)(C[C@@H](O)C[C@@H](O)[C@H](O)CC[C@@H](O)C[C@@H](O)CC(=O)O[C@H]1C)C[C@H](O)[C@H]2C(=O)O [Amphotericin B, reference compound]
zone appearance (clear = fungicidal, hazy = fungistatic) (Fungal cells; [7]): clear zone
zone of growth inhibition, diameter (Fungal cells; [7]): 8-10 mm
Deaths Each Day Post Inoculation, day 0 ([1]; 10 mg/kg IP): 0
Deaths Each Day Post Inoculation, day 1 ([1]; 10 mg/kg IP): 0
Deaths Each Day Post Inoculation, day 3 ([1]; 10 mg/kg IP): 0
Deaths Each Day Post Inoculation, day 5 ([1]; 10 mg/kg IP): 0
Deaths Each Day Post Inoculation, day 6 ([1]; 10 mg/kg IP): 0
Deaths Each Day Post Inoculation, day 7 ([1]; 10 mg/kg IP): 0
Deaths Each Day Post Inoculation, day 8 ([1]; 10 mg/kg IP): 0
Deaths Each Day Post Inoculation, day 9 ([1]; 10 mg/kg IP): 0
% Survival [1, 8]: 80%

C/C=C/C/C=C/CCC(=O)[C@H]1O[C@H]1C(N)=O [Cerulenin, cerulenin, reference compound]
zone appearance (clear = fungicidal, hazy = fungistatic) (Fungal cells; [7]): hazy zone
zone of growth inhibition, diameter (Fungal cells; [7]): 20-25 mm
remaining activity at 10 µg/mL ([2]; 0.25 h): 20%
remaining activity at 10 µg/mL ([2]; 0.5 h): 12%

C/C=C/C=C/C=C/C1=CC2=CC(=O)C(C)(OC(=O)CC(C)O)C(=O)C23OC3O1 (centres unmarked) [Compound A]
antimicrobial activity (in words) [3]: had antimicrobial activity
antimicrobial activity (in words) [4]: had antimicrobial activity
FAS inhibition in the in vitro enzyme inhibition assay (in words) (FAS from S. cereviseae): retained activity
IC50 (FAS from S. cereviseae): 414 µM
zone of inhibition at 100 µg/disc (Fungal cells): 8 to 12 mm
zone appearance (clear = fungicidal, hazy = fungistatic) (Fungal cells; 100 μg per disk): clear zones
Deaths Each Day Post Inoculation, day 0 ([1]; 10 mg/kg IP): 0
Deaths Each Day Post Inoculation, day 1 ([1]; 10 mg/kg IP): 0
Deaths Each Day Post Inoculation, day 2 ([1]; 10 mg/kg IP): 2
Deaths Each Day Post Inoculation, day 3 ([1]; 10 mg/kg IP): 3
Deaths Each Day Post Inoculation, day 4 ([1]; 10 mg/kg IP): 0
Deaths Each Day Post Inoculation, day 5 ([1]; 10 mg/kg IP): 0
Deaths Each Day Post Inoculation, day 6 ([1]; 10 mg/kg IP): 0
Deaths Each Day Post Inoculation, day 7 ([1]; 10 mg/kg IP): 0
Deaths Each Day Post Inoculation, day 8 ([1]; 10 mg/kg IP): 0
Deaths Each Day Post Inoculation, day 9 ([1]; 10 mg/kg IP): 0
% Survival [1, 8]: 0%
MIC [5, 9]: 50 µg/mL (≈ 129 µM)
MIC ([5]; YNB medium): 25 µg/mL (≈ 64.7 µM)
activity in the MIC assay of Example 1B (in words) [5]: retained activity
MTD at 72 h [6]: 10 mg/kg

C/C=C/C=C/C=C/C1=CC2=CC(=O)C(C)(OC(=O)CC(C)O)C(=O)C2=CO1 (centres unmarked) [Compound B]
antimicrobial activity (in words) [3]: had antimicrobial activity
antimicrobial activity (in words) [4]: had antimicrobial activity
FAS inhibition in the in vitro enzyme inhibition assay (in words) (FAS from S. cereviseae): not directly inhibitory of FAS
zone of inhibition at 100 µg/disc (Fungal cells): 8 to 12 mm
zone appearance (clear = fungicidal, hazy = fungistatic) (Fungal cells; 100 μg per disk): clear zones
FAS activity of cell extracts made after exposure (in words) [2]: markedly reduced FAS activity
remaining activity at 25 µg/mL ([2]; 0.25 h): 53%
remaining activity at 25 µg/mL ([2]; 0.5 h): 40%
remaining activity at 25 µg/mL ([2]; 0.75 h): 35%
remaining activity at 25 µg/mL ([2]; 1 h): 22%
Deaths Each Day Post Inoculation, day 0 ([1]; 30 mg/kg IP): 0
Deaths Each Day Post Inoculation, day 1 ([1]; 30 mg/kg IP): 2
Deaths Each Day Post Inoculation, day 2 ([1]; 30 mg/kg IP): 1
Deaths Each Day Post Inoculation, day 3 ([1]; 30 mg/kg IP): 0
Deaths Each Day Post Inoculation, day 4 ([1]; 30 mg/kg IP): 0
Deaths Each Day Post Inoculation, day 5 ([1]; 30 mg/kg IP): 0
Deaths Each Day Post Inoculation, day 6 ([1]; 30 mg/kg IP): 0
Deaths Each Day Post Inoculation, day 7 ([1]; 30 mg/kg IP): 0
Deaths Each Day Post Inoculation, day 8 ([1]; 30 mg/kg IP): 0
Deaths Each Day Post Inoculation, day 9 ([1]; 30 mg/kg IP): 0
% Survival ([1]; 30 mg/kg IP one hour after inoculation): 40%
Deaths Each Day Post Inoculation, day 0 ([1]; 100 mg/kg IP): 0
Deaths Each Day Post Inoculation, day 1 ([1]; 100 mg/kg IP): 2
Deaths Each Day Post Inoculation, day 2 ([1]; 100 mg/kg IP): 0
Deaths Each Day Post Inoculation, day 3 ([1]; 100 mg/kg IP): 0
Deaths Each Day Post Inoculation, day 4 ([1]; 100 mg/kg IP): 0
Deaths Each Day Post Inoculation, day 5 ([1]; 100 mg/kg IP): 0
Deaths Each Day Post Inoculation, day 6 ([1]; 100 mg/kg IP): 0
Deaths Each Day Post Inoculation, day 7 ([1]; 100 mg/kg IP): 0
Deaths Each Day Post Inoculation, day 8 ([1]; 100 mg/kg IP): 1
Deaths Each Day Post Inoculation, day 9 ([1]; 100 mg/kg IP): 0
% Survival ([1]; 100 mg/kg IP one hour after inoculation): 40%
MIC [5, 9]: 50 µg/mL (≈ 135 µM)
MIC ([5]; YNB medium): 6.25 µg/mL (≈ 16.9 µM)
activity in the MIC assay of Example 1B (in words) [5]: retained activity
MTD at 72 h [6]: > 200 mg/kg

C/C=C/C=C/C=C/C1=CC2=CC(=O)C(C)(OC(=O)CC(O)CC(C)O)C(=O)C23OC3O1 (centres unmarked) [patulodin, reference compound]
zone of inhibition at 100 µg/disc (Fungal cells): 7 mm
MIC ([5]; YNB medium): > 100 µg/mL
